Laboratory results from ChEMBL document CHEMBL4152189, “Incorporation of nitric oxide donor into 1,3-dioxyxanthones leads to synergistic anticancer activity” (Eur J Med Chem, 2018).
Active and inactive are the calls of the source. No cut-off for these calls is given here.

Tests used:
[1] = system: L02; experiment: Induction of NO generation in human HL-7702 cells assessed as nitrite levels at 0.66 uM after 12 hrs by Griess assay (reference value: 11.8 +/- 1.2 uM); assay type: functional
[2] = system: HepG2; experiment: Induction of apoptosis in human HepG2 cells assessed as inhibition of p53-MDM2 interaction by measuring p53/MDM2 ratio at 1 uM after 24 hrs by Western blot analysis (reference value: 0.48); assay type: functional
[3] = system: HepG2; experiment: Growth inhibition of human HepG2 cells after 24 hrs by MTT assay; assay type: functional, cell-based; settings: HepG2, 24 h
[4] = system: HepG2; experiment: Induction of NO generation in human HepG2 cells assessed as nitrite levels at 0.33 uM after 24 hrs by Griess assay (reference value: 12.8 +/- 1.7 uM); assay type: functional
[5] = system: HepG2; experiment: Induction of NO generation in human HepG2 cells assessed as nitrite levels at 0.33 uM after 6 hrs by Griess assay (reference value: 12.6 +/- 1.1 uM); assay type: functional
[6] = system: MCF7; experiment: Growth inhibition of human MCF7 cells after 24 hrs by MTT assay; assay type: functional, cell-based; settings: MCF7, 24 h
[7] = system: HepG2; experiment: Induction of NO generation in human HepG2 cells assessed as nitrite levels at 0.33 uM after 12 hrs by Griess assay (reference value: 12.7 +/- 1.8 uM); assay type: functional
[8] = system: HepG2; experiment: Induction of apoptosis in human HepG2 cells assessed as increase in cleaved caspase9 level up to 0.66 uM after 24 hrs by Western blot analysis; assay type: functional, cell-based
[9] = system: L02; experiment: Induction of NO generation in human HL-7702 cells assessed as nitrite levels at 0.66 uM after 24 hrs by Griess assay (reference value: 11.6 +/- 1.1 uM); assay type: functional
[10] = system: L02; experiment: Induction of NO generation in human HL-7702 cells assessed as nitrite levels at 0.66 uM after 6 hrs by Griess assay (reference value: 11.8 +/- 1.1 uM); assay type: functional
[11] = system: HepG2; experiment: Induction of apoptosis in human HepG2 cells assessed as inhibition of p53-MDM2 interaction by measuring upregulation of p53 expression after 24 hrs by Western blot analysis; assay type: functional, cell-based
[12] = system: HepG2; experiment: Induction of apoptosis in human HepG2 cells at 0.66 uM after 24 hrs by Annexin-V/propidium iodide staining-based flow cytometric analysis; assay type: functional
[13] = system: HepG2; experiment: Cell cycle arrest in human HepG2 cells assessed as accumulation at S phase after 24 hrs by propidium iodide/RNAse staining-based flow cytometric analysis; assay type: functional
[14] = system: HepG2; experiment: Induction of apoptosis in human HepG2 cells assessed as late apoptotic/necrotic cells at 0.66 uM after 24 hrs by Annexin-V/propidium iodide staining-based flow cytometric analysis; assay type: functional
[15] = system: HepG2; experiment: Induction of NO generation in human HepG2 cells assessed as nitrite levels at 0.16 uM after 1 hr by Griess assay (reference value: 12.9 +/- 1.5 uM); assay type: functional
[16] = system: HepG2; experiment: Induction of NO generation in human HepG2 cells assessed as nitrite levels at 0.66 uM after 24 hrs by Griess assay (reference value: 12.8 +/- 1.7 uM); assay type: functional
[17] = system: HepG2; experiment: Induction of apoptosis in human HepG2 cells at 0.16 uM after 24 hrs by Annexin-V/propidium iodide staining-based flow cytometric analysis; assay type: functional
[18] = system: HepG2; experiment: Induction of NO generation in human HepG2 cells assessed as nitrite levels at 0.66 uM after 60 hrs by Griess assay (reference value: 12.8 +/- 1.5 uM); assay type: functional
[19] = system: L02; experiment: Induction of NO generation in human HL-7702 cells assessed as nitrite levels at 0.66 uM after 48 hrs by Griess assay (reference value: 11.6 +/- 1.1 uM); assay type: functional
[20] = system: HepG2; experiment: Induction of NO generation in human HepG2 cells assessed as nitrite levels at 0.16 uM after 60 hrs by Griess assay (reference value: 12.8 +/- 1.5 uM); assay type: functional
[21] = system: HepG2; experiment: Induction of apoptosis in human HepG2 cells assessed as inhibition of p53-MDM2 interaction by measuring downregulation of MDM2 expression at 1 uM after 24 hrs by Western blot analysis; assay type: functional, cell-based
[22] = system: HepG2; experiment: Induction of NO generation in human HepG2 cells assessed as nitrite levels at 0.16 uM after 6 hrs by Griess assay (reference value: 12.6 +/- 1.1 uM); assay type: functional
[23] = system: HepG2; experiment: Induction of NO generation in human HepG2 cells assessed as nitrite levels at 0.33 uM after 48 hrs by Griess assay (reference value: 12.8 +/- 1.7 uM); assay type: functional
[24] = system: HepG2; experiment: Cell cycle arrest in human HepG2 cells assessed as accumulation at S phase at 0.66 uM after 24 hrs by propidium iodide/RNAse staining-based flow cytometric analysis relative to control; assay type: functional
[25] = system: HepG2; experiment: Induction of apoptosis in human HepG2 cells assessed as increase in cleaved caspase3 level up to 0.66 uM after 24 hrs by Western blot analysis; assay type: functional, cell-based
[26] = system: HepG2; experiment: Growth inhibition of human HepG2 cells pre-incubated with NO scavenger carboxy-PTIO for 1 hr followed by 0.66 uM compound treatment for 24 hrs by MTT assay; assay type: functional, cell-based
[27] = system: HepG2; experiment: Induction of apoptosis in human HepG2 cells assessed as early apoptotic cells at 0.66 uM after 24 hrs by Annexin-V/propidium iodide staining-based flow cytometric analysis; assay type: functional
[28] = system: HepG2; experiment: Induction of NO generation in human HepG2 cells assessed as nitrite levels at 0.16 uM after 12 hrs by Griess assay (reference value: 12.7 +/- 1.8 uM); assay type: functional
[29] = system: HepG2; experiment: Induction of NO generation in human HepG2 cells assessed as nitrite levels at 0.66 uM after 48 hrs by Griess assay (reference value: 12.8 +/- 1.7 uM); assay type: functional
[30] = Selectivity index, ratio of IC50 for human HL-7702 cells to IC50 for human HepG2 cells; assay type: toxicity; settings: HL-7702 cells versus HepG2 cells, read-out: Ratio IC50
[31] = system: HepG2; experiment: Induction of NO generation in human HepG2 cells assessed as nitrite levels at 0.16 uM after 48 hrs by Griess assay (reference value: 12.8 +/- 1.7 uM); assay type: functional
[32] = system: HepG2; experiment: Induction of NO generation in human HepG2 cells assessed as nitrite levels at 0.33 uM after 1 hr by Griess assay (reference value: 12.9 +/- 1.5 uM); assay type: functional
[33] = system: MDA-MB-231; experiment: Growth inhibition of human MDA-MB-231 cells after 24 hrs by MTT assay; assay type: functional, cell-based; settings: MDA-MB-231, 24 h
[34] = system: HepG2; experiment: Induction of NO generation in human HepG2 cells assessed as nitrite levels at 0.33 uM after 3 hrs by Griess assay (reference value: 12.8 +/- 1.5 uM); assay type: functional
[35] = system: HepG2; experiment: Growth inhibition of human HepG2 cells pre-incubated with mtADH inhibitor PCDA for 2.5 hrs followed by 0.66 uM compound treatment for 24 hrs by MTT assay; assay type: functional, cell-based
[36] = system: L02; experiment: Induction of NO generation in human HL-7702 cells assessed as nitrite levels at 0.66 uM after 3 hrs by Griess assay (reference value: 11.6 +/- 1.2 uM); assay type: functional
[37] = system: HepG2; experiment: Induction of NO generation in human HepG2 cells assessed as nitrite levels at 0.16 uM after 3 hrs by Griess assay (reference value: 12.8 +/- 1.5 uM); assay type: functional

Molecule COc1cccc2oc3cc(OCCCCCO[N+](=O)[O-])cc(O)c3c(=O)c12 has an Activity [1] of 19.3 µM, a Ratio [2] of 6.46 and an IC50 [3] of 330 nM. It also gave an Activity [4] of 35.1 µM, an Activity [5] of 29.6 µM and an IC50 [6] of 33100 nM. The Activity [7] was 31.5 µM, the Activity [8] was “Dose-dependent effect” and the Activity [9] was 19.4 µM. The Activity [10] was 17.1 µM, the Activity [11] was “Dose-dependent effect” and the Activity [12] was 86.8%. For the same molecule, the Activity [13] was “Dose-dependent effect”, the Activity [14] was 41.7% and the Activity [15] was 15.6 µM. The Activity [16] was 39.1 µM, the Activity [17] was 4.6% and the Activity [18] was 20.2 µM. For the same molecule, the Activity [19] was 16.2 µM, the Activity [20] was 15.7 µM and the Activity [21] was “Active”. For the same molecule, the Activity [22] was 22.9 µM, the Activity [23] was 26.6 µM and the Activity [24] was 93.1%. The Activity [25] was “Dose-dependent effect”, the “growth inhibition (GI)” value [26] was “inactive” and the Activity [27] was 45.1%. It also gave an Activity [28] of 25.7 µM, an Activity [29] of 28.1 µM and a selectivity ratio [30] of 1140. It also gave an Activity [31] of 21.3 µM, an Activity [32] of 19.3 µM and an IC50 [33] of 570 nM. The Activity [34] was 23.2 µM, the “growth inhibition (GI)” value [35] was “inactive” and the Activity [36] was 15.1 µM. It also gave an Activity [37] of 18.8 µM.
